Source: patent publication US12606541B2, “PPARg modulators and methods of use” (Eisai R&D Management Co., Ltd., priority 2020, dated 2026)
pIC50: −log10 of the molar value.

Assays:
His6-TEV-PPARγ-(234-505) = target: T1, His6-TEV-PPARγ-(234-505) (Homo sapiens, UniProt P37231); test: TR-FRET Assay to Measure Co-R Peptide Recruitment to PPARγ; type: biochemical; details: Co-R peptide (SMRT-ID2) recruitment; top final concentration 20 μM; read-out: TR-FRET i-Ag; AC50
T1 construct: The His6-TEV-PPARγ-(234-505) protein for assay was expressed and purified; TEV cleavage site (N); made in house
T1 sequence (P37231 234-505): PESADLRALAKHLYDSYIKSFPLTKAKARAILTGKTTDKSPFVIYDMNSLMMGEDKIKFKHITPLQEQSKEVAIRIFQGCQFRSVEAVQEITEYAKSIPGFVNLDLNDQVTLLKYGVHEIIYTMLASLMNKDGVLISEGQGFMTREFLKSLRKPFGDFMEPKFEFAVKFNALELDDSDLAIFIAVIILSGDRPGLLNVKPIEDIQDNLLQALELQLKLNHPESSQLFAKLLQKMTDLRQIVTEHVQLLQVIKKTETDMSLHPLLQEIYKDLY
Procedure, shortened: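 His-tagged PPARγ (or controls) was preincubated with compound for 20 minutes at room temperature, then 5 nM anti-His terbium antibody and 200 nM FITC-labeled SMRT-ID2 corepressor peptide (final) were added for a further hour. TR-FRET signal was normalized to percent response using 500 nM T0070907 and DMSO controls.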

UM-UC-9 engineered cells = test: Cell proliferation / short-term viability assay, CellTiter-Glo 144 h; type: cell-based, human; details: Homo sapiens, UM-UC-9, 144 h, read-out: CTGlo 144 h UMUC9.5, G150
Procedure, shortened: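 UM-UC-9 engineered assay-ready cells seeded at 500 cells/well in high-glucose DMEM/10% FBS, treated from dose-response plates, grown at 37° C, 5% CO2. CellTiter-Glo 2.0 luminescence read on day 7, with a day-0 pretreatment plate as T0 reference and DMSO wells as negative control.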

| SMILES | AC50 (His6-TEV-PPARγ-(234-505)) [nM] | pIC50 (UM-UC-9 engineered cells) |
| --- | --- | --- |
| COc1cc(-c2nc(C(=O)N3CCC(C(=O)NCc4cccc(Cl)c4)CC3)n[nH]2)c(F)cn1 [Example 166, N-[(3-chlorophenyl)methyl]-1-[5-(5-fluoro-2-methoxypyridin-4-yl)-1H-1,2,4-triazole-3-carbonyl]piperidine-4-carboxamide] | 300 | < 5.00 |
| COc1cc(-c2cc(C(=O)N3CCC(C(=O)NCc4ccc5c(c4)CC(=O)N5)CC3)n[nH]2)c(Cl)cn1 [Example 167, 1-(5-(5-chloro-2-methoxypyridin-4-yl)-1H-pyrazole-3-carbonyl)-N-((2-oxoindolin-5-yl)methyl)piperidine-4-carboxamide] | 112 | 5.39 |
| COc1cc(-c2cc(C(=O)N3CCC(C(=O)NCc4cnc5[nH]ccc5c4)CC3)n[nH]2)c(Cl)cn1 [Example 168, N-((1H-pyrrolo[2,3-b]pyridin-5-yl)methyl)-1-(5-(5-chloro-2-methoxypyridin-4-yl)-1H-pyrazole-3-carbonyl)piperidine-4-carboxamide] | 45.7 | 6.31 |
| COc1cc(-c2cc(C(=O)N3[C@@H]4CC[C@H]3C[C@H](C(=O)N[C@H]3CC[C@](O)(C(F)(F)F)CC3)C4)n[nH]2)c(F)cn1 [Example 170-B, (1R,3s,5S)-8-(5-(5-fluoro-2-methoxypyridin-4-yl)-1H-pyrazole-3-carbonyl)-N-((1s,4S)-4-hydroxy-4-(trifluoromethyl)cyclohexyl)-8-azabicyclo[3.2.1]octane-3-carboxamide] | 1110 | 5.45 |
| COc1cc(-c2cc(C(=O)N3CCC(O)(C(=O)NCc4cccc(Cl)c4)CC3)n[nH]2)c(Cl)cn1 [Example 171, 1-(5-(5-chloro-2-methoxypyridin-4-yl)-1H-pyrazole-3-carbonyl)-N-(3-chlorobenzyl)-4-hydroxypiperidine-4-carboxamide] | 210 | 5.81 |
| COc1cc(-c2cc(C(=O)N3CCC(F)(C(=O)NCc4cccc(Cl)c4)CC3)n[nH]2)c(Cl)cn1 [Example 174, 1-(5-(5-chloro-2-methoxypyridin-4-yl)-1H-pyrazole-3-carbonyl)-N-(3-chlorobenzyl)-4-fluoropiperidine-4-carboxamide] | 125 | 6.39 |
| COc1cc(-c2cc(C(=O)N3CCC(C(=O)NCc4ccc(C)cn4)CC3)n[nH]2)c(Cl)cn1 [Example 176, 1-(5-(5-chloro-2-methoxypyridin-4-yl)-1H-pyrazole-3-carbonyl)-N-((5-methylpyridin-2-yl)methyl)piperidine-4-carboxamide] | 376 | 5.73 |
| COc1cc(-c2cc(C(=O)N3CCC(C(=O)NCc4ccc(C(F)(F)F)nc4)CC3)n[nH]2)c(Cl)cn1 [Example 178, 1-(5-(5-chloro-2-methoxypyridin-4-yl)-1H-pyrazole-3-carbonyl)-N-((6-(trifluoro-15-methyl)pyridin-3-yl)methyl)piperidine-4-carboxamide] | 344 | 5.90 |
| COc1cc(-c2cc(C(=O)N3CCC(C(=O)NCc4cncc(Cl)c4)CC3)n[nH]2)c(Cl)cn1 [Example 179, 1-(5-(5-chloro-2-methoxypyridin-4-yl)-1H-pyrazole-3-carbonyl)-N-((5-chloropyridin-3-yl)methyl)piperidine-4-carboxamide] | 321 | 5.81 |
| COc1cc(-c2cc(C(=O)N3CCC(C(=O)NCc4ccc5cn[nH]c5c4)CC3)n[nH]2)c(Cl)cn1 [Example 180, N-((1H-indazol-6-yl)methyl)-1-(5-(5-chloro-2-methoxypyridin-4-yl)-1H-pyrazole-3-carbonyl)piperidine-4-carboxamide] | 144 | 6.15 |
| COc1cc(-c2cc(C(=O)N3CCC(C(=O)NCc4c[nH]c5ccccc45)CC3)n[nH]2)c(Cl)cn1 [Example 181, N-((1H-indol-3-yl)methyl)-1-(5-(5-chloro-2-methoxypyridin-4-yl)-1H-pyrazole-3-carbonyl)piperidine-4-carboxamide] | 56.2 | 7.07 |
| COc1cc(-c2cc(C(=O)N3CCC(C(=O)NCc4ccc5cnccc5c4)CC3)n[nH]2)c(Cl)cn1 [Example 182, 1-(5-(5-chloro-2-methoxypyridin-4-yl)-1H-pyrazole-3-carbonyl)-N (isoquinolin-6-ylmethyl)piperidine-4-carboxamide] | 422 | 5.79 |
| COc1cc(-c2cc(C(=O)N3CCC(C(=O)NC4CC(=O)N(c5ccccc5)C4)CC3)n[nH]2)c(Cl)cn1 (centres unmarked) [Example 183, 1-(5-(5-chloro-2-methoxypyridin-4-yl)-1H-pyrazole-3-carbonyl)-N-(5-oxo-1-phenylpyrrolidin-3-yl)piperidine-4-carboxamide] | 233 | 5.78 |
| COc1cc(-c2cc(C(=O)N3CCC(C(=O)NC4CCOc5ccccc54)CC3)n[nH]2)c(Cl)cn1 (centres unmarked) [Example 184, 1-(5-(5-chloro-2-methoxypyridin-4-yl)-1H-pyrazole-3-carbonyl)-N (chroman-4-yl)piperidine-4-carboxamide] | 215 | 6.42 |
| COc1cc(-c2cc(C(=O)N3CCC(C(=O)NCc4cn(C)c5ccccc45)CC3)n[nH]2)c(Cl)cn1 [Example 187, 1-(5-(5-chloro-2-methoxypyridin-4-yl)-1H-pyrazole-3-carbonyl)-N-((1-methyl-1H-indol-3-yl)methyl)piperidine-4-carboxamide] | 41.7 | 6.94 |
| COc1cc(-c2cc(C(=O)N3CCC(C(=O)NCc4ccc5cc[nH]c5c4)CC3)n[nH]2)c(Cl)cn1 [Example 188, N-((1H-indol-6-yl)methyl)-1-(5-(5-chloro-2-methoxypyridin-4-yl)-1H-pyrazole-3-carbonyl)piperidine-4-carboxamide] | 79.8 | 6.68 |
| COc1cc(-c2cc(C(=O)N3CCC(C(=O)NCc4ccc(C)o4)CC3)n[nH]2)c(Cl)cn1 [Example 189, 1-(5-(5-chloro-2-methoxypyridin-4-yl)-1H-pyrazole-3-carbonyl)-N-((5-methylfuran-2-yl)methyl)piperidine-4-carboxamide] | 119 | 6.28 |
| COc1cc(-c2cc(C(=O)N3CCC(C(=O)NCc4cccc5[nH]ccc45)CC3)n[nH]2)c(Cl)cn1 [Example 190, N-((1H-indol-4-yl)methyl)-1-(5-(5-chloro-2-methoxypyridin-4-yl)-1H-pyrazole-3-carbonyl)piperidine-4-carboxamide] | 24 | 7.04 |
| COc1cc(-c2cc(C(=O)N3CCC(C(=O)NCc4cccc5[nH]ncc45)CC3)n[nH]2)c(Cl)cn1 [Example 192, N-((1H-indazol-4-yl)methyl)-1-(5-(5-chloro-2-methoxypyridin-4-yl)-1H-pyrazole-3-carbonyl)piperidine-4-carboxamide] | 83.3 | 6.43 |
| COc1cc(-c2cc(C(=O)N3CCC(C(=O)NCc4ncc(C(F)(F)F)cc4Cl)CC3)n[nH]2)c(Cl)cn1 [Example 193, 1-(5-(5-chloro-2-methoxypyridin-4-yl)-1H-pyrazole-3-carbonyl)-N-((3-chloro-5-(trifluoromethyl)pyridin-2-yl)methyl)piperidine-4-carboxamide] | 394 | 5.92 |
| COc1cc(-c2cc(C(=O)N3CCC(C(=O)NCc4cccc5cc[nH]c45)CC3)n[nH]2)c(Cl)cn1 [Example 194, N-((1H-indol-7-yl)methyl)-1-(5-(5-chloro-2-methoxypyridin-4-yl)-1H-pyrazole-3-carbonyl)piperidine-4-carboxamide] | 808 | 6.32 |
| COc1cc(-c2cc(C(=O)N3CCC(C(=O)NC4CCN(c5ccccc5)CC4)CC3)n[nH]2)c(Cl)cn1 [Example 196, 1-(5-(5-chloro-2-methoxypyridin-4-yl)-1H-pyrazole-3-carbonyl)-N-(1-phenylpiperidin-4-yl)piperidine-4-carboxamide] | 610 | 5.99 |
| COc1cc(-c2cc(C(=O)N3CCC(C(=O)NCc4ccc5n[nH]nc5c4)CC3)n[nH]2)c(Cl)cn1 [Example 197, N-((2H-benzo[d][1,2,3]triazol-5-yl)methyl)-1-(5-(5-chloro-2-methoxypyridin-4-yl)-1H-pyrazole-3-carbonyl)piperidine-4-carboxamide] | 197 | 5.41 |
| COc1cc(-c2cc(C(=O)N3CCC(C(=O)N[C@H]4CC[C@](C)(O)CC4)CC3)n[nH]2)c(Cl)cn1 [Example 198, 1-(5-(5-chloro-2-methoxypyridin-4-yl)-1H-pyrazole-3-carbonyl)-N-((1r,4r)-4-hydroxy-4-methylcyclohexyl)piperidine-4-carboxamide] | 917 | 5.38 |
| COc1cc(-c2cc(C(=O)N3CCC(C(=O)N[C@H]4CC[C@@](O)(C(F)(F)F)CC4)CC3)n[nH]2)c(Cl)cn1 [Example 199, 1-(5-(5-chloro-2-methoxypyridin-4-yl)-1H-pyrazole-3-carbonyl)-N-((1r,4r)-4-hydroxy-4-(trifluoromethyl)cyclohexyl)piperidine-4-carboxamide] | 32 | 6.85 |
